Key:
[1] = test system: ABUTH (Abutilon theophrasti); assay: Postemergence herbicidal evaluation; assay type: in vivo, Medic.; details: for ABUTH herbicidal rating: postemergence
How it was run: (§1)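 Seedlings grown for about two weeks were sprayed postemergence and then kept under standard greenhouse care. Injury was rated visually 4–5 weeks after treatment on a 0–9 scale against untreated controls, and ratings from repeat tests were averaged.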

GALAP (Galium aparine) = assay: Postemergence herbicidal evaluation; assay type: in vivo; details: for GALAP herbicidal rating: postemergence
How it was run: as §1

[2] = test system: IPOHE (Ipomoea hederacea); assay: Postemergence herbicidal evaluation; assay type: in vivo, (L.) Jacq.; details: for IPOHE herbicidal rating: postemergence
How it was run: as §1

[3] = test system: ECHCG (Echinochloa crus-galli); assay: Postemergence herbicidal evaluation; assay type: in vivo, (L.) Beau; details: for ECHCG herbicidal rating: postemergence
How it was run: as §1

SETVI (Setaria viridis) [4] = assay: Postemergence herbicidal evaluation; assay type: in vivo, (L.) Beau; details: for SETVI herbicidal rating: postemergence
How it was run: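 Postemergence foliar spray on two-week-old seedlings, dose equivalent to about 0.0040 to 1.000 kg/ha. Ratings use a 0-9 visual scale relative to control at four to five weeks.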

[5] = test system: GLXMAW (Soybean, Williams); assay: Postemergence herbicidal evaluation; assay type: in vivo, Glycine max, (L.) Merr. cv Williams; details: for GLXMAW herbicidal rating: postemergence
How it was run: as §1

ORYSAT (Rice, Tebonnet) [6] = assay: Postemergence herbicidal evaluation; assay type: in vivo, Oryza sativa, (L.) Tebonnet; details: for ORYSAT herbicidal rating: postemergence
How it was run: as §1

ZEAMX (Corn, Field) = assay: Postemergence herbicidal evaluation; assay type: in vivo, Zea mays, L.; details: for ZEAMX herbicidal rating: postemergence
How it was run: as §1

[7] = test system: AMBEL (Ambrosia artemisifolia); assay: Preemergence herbicidal evaluation; assay type: in vivo, L.; details: rated 4-5 weeks after treatment
How it was run: (§2)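 Test compound is applied in aqueous acetone to cups just after seeding. Cups are watered and maintained on greenhouse benches. Each cup is scored 0–9 by eye relative to a control after four to five weeks.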

[8] = test system: CASOB (Cassia obtusifolia); assay: Preemergence herbicidal evaluation; assay type: in vivo, L.; details: rated 4-5 weeks after treatment
How it was run: as §2

[9] = test system: CHEAL (Chenopodium album); assay: Preemergence herbicidal evaluation; assay type: in vivo, L.; details: rated 4-5 weeks after treatment
How it was run: as §2

[10] = test system: IPOHE (Ipomoea hederacea); assay: Preemergence herbicidal evaluation; assay type: in vivo, (L.) Jacq.; details: rated 4-5 weeks after treatment
[11] = test system: ECHCG (Echinochloa crus-galli); assay: Preemergence herbicidal evaluation; assay type: in vivo, (L.) Beau; details: rated 4-5 weeks after treatment
How it was run: as §2

SETVI (Setaria viridis) [12] = assay: Preemergence herbicidal evaluation; assay type: in vivo, (L.) Beau; details: rated 4-5 weeks after treatment
How it was run: as §2

ORYSAT (Rice, Tebonnet) [13] = assay: Preemergence herbicidal evaluation; assay type: in vivo, Oryza sativa, (L.) Tebonnet; details: rated 4-5 weeks after treatment
[14] = test system: ECHORC (Echinochloa oryzoides); assay: Flooded paddy, preemergence weed control; assay type: in vivo, Echinochloa oryzoides (Ard.) Fritsch.; details: rated 3-4 weeks after treatment, 0-9 rating scale
How it was run: (§3)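 Ratings of 0-9 reflect visual comparison with a control for stand, vigor, deformity, size, chlorosis and overall look. Propagules were placed in shallow silt loam (top 0.5 cm) under a continuous 1.5–3 cm flood and grown in the greenhouse.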

CYPIR (Cyperus iria) = assay: Flooded paddy, preemergence weed control; assay type: in vivo; details: rated 3-4 weeks after treatment, 0-9 rating scale
How it was run: as §3

[15] = test system: MOOVA (Monochoria vaginalis); assay: Flooded paddy, preemergence weed control; assay type: in vivo, Presl.; details: rated 3-4 weeks after treatment, 0-9 rating scale
How it was run: as §3

[16] = test system: SAGPY (Sagittaria pygmaea); assay: Flooded paddy, preemergence weed control; assay type: in vivo, L.; details: rated 3-4 weeks after treatment, 0-9 rating scale
How it was run: as §3

ORYSAT (Rice, Tebonnet) [17] = assay: Flooded paddy, post-transplant rice tolerance; assay type: in vivo, Oryza sativa, (L.) Tebonnet; details: flooded paddy, post-transplant rice, rated 3-4 weeks after treatment, 0-9 rating scale
How it was run: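 Visual 0–9 injury rating against a control, covering stand, vigor, malformation, size, chlorosis and overall appearance. Treatment was post-transplant onto flooded containers (water 1.5–3 cm deep, silt loam) holding two ten-day-old cv. Tebonnet seedlings, maintained on greenhouse benches.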

Cn1c(C(F)(F)F)cc(=O)n(-c2ccc3snc(C4OCC(CCl)O4)c3c2)c1=O (stereo not drawn) [Compound 72, 3-[3-[4-(chloromethyl)-1,3-dioxolan-2-yl]-1,2-benzisothiazol-5-yl]-1-methyl-6-(trifluoromethyl)uracil]
3.0: ECHCG herbicidal rating ([3]; rate 0.0320 kg/ha) | ECHCG herbicidal rating ([3]; rate 0.0620 kg/ha) | Preemergence herbicidal rating CASOB ([8]; Rate 0.0620 kg/ha) | herbicidal rating, CYPIR (CYPIR (Cyperus iria); rate 0.0320 kg/ha)
8.5: GLXMAW herbicidal rating ([5]; rate 0.0620 kg/ha) | Preemergence herbicidal rating ORYSAT (ORYSAT (Rice, Tebonnet) [13]; Rate 0.0620 kg/ha) | Preemergence herbicidal rating ORYSAT (ORYSAT (Rice, Tebonnet) [13]; Rate 0.1250 kg/ha)
4.5: ORYSAT herbicidal rating (ORYSAT (Rice, Tebonnet) [6]; rate 0.0620 kg/ha)
7.0: herbicidal rating, ORYSAT (rice tolerance) (ORYSAT (Rice, Tebonnet) [17]; rate 0.0320 kg/ha)
4.0: ORYSAT herbicidal rating (ORYSAT (Rice, Tebonnet) [6]; rate 0.0320 kg/ha)
6.5: GLXMAW herbicidal rating ([5]; rate 0.0320 kg/ha) | Preemergence herbicidal rating CASOB ([8]; Rate 0.1250 kg/ha) | Preemergence herbicidal rating IPOHE ([10]; Rate 0.1250 kg/ha)
0.0: herbicidal rating, CYPIR (CYPIR (Cyperus iria); rate 0.0080 kg/ha) | herbicidal rating, MOOVA ([15]; rate 0.0080 kg/ha) | herbicidal rating, SAGPY ([16]; rate 0.0080 kg/ha) | herbicidal rating, SAGPY ([16]; rate 0.0320 kg/ha) | herbicidal rating, ORYSAT (rice tolerance) (ORYSAT (Rice, Tebonnet) [17]; rate 0.0080 kg/ha)
8.0: SETVI herbicidal rating (SETVI (Setaria viridis) [4]; rate 0.0320 kg/ha) | SETVI herbicidal rating (SETVI (Setaria viridis) [4]; rate 0.0620 kg/ha) | Preemergence herbicidal rating CASOB ([8]; Rate 0.2500 kg/ha) | Preemergence herbicidal rating IPOHE ([10]; Rate 0.2500 kg/ha) | herbicidal rating, SAGPY ([16]; rate 0.1250 kg/ha) | herbicidal rating, ORYSAT (rice tolerance) (ORYSAT (Rice, Tebonnet) [17]; rate 0.1250 kg/ha)
9.0: ABUTH herbicidal rating ([1]; rate 0.0320 kg/ha) | ABUTH herbicidal rating ([1]; rate 0.0620 kg/ha) | GALAP herbicidal rating (GALAP (Galium aparine); rate 0.0320 kg/ha) | GALAP herbicidal rating (GALAP (Galium aparine); rate 0.0620 kg/ha) | IPOHE herbicidal rating ([2]; rate 0.0320 kg/ha) | IPOHE herbicidal rating ([2]; rate 0.0620 kg/ha) | Preemergence herbicidal rating AMBEL ([7]; Rate 0.0620 kg/ha) | Preemergence herbicidal rating AMBEL ([7]; Rate 0.1250 kg/ha) | Preemergence herbicidal rating AMBEL ([7]; Rate 0.2500 kg/ha) | Preemergence herbicidal rating CHEAL ([9]; Rate 0.0620 kg/ha) | Preemergence herbicidal rating CHEAL ([9]; Rate 0.1250 kg/ha) | Preemergence herbicidal rating CHEAL ([9]; Rate 0.2500 kg/ha) | Preemergence herbicidal rating ECHCG ([11]; Rate 0.0620 kg/ha) | Preemergence herbicidal rating ECHCG ([11]; Rate 0.1250 kg/ha) | Preemergence herbicidal rating ECHCG ([11]; Rate 0.2500 kg/ha) | Preemergence herbicidal rating SETVI (SETVI (Setaria viridis) [12]; Rate 0.0620 kg/ha) | Preemergence herbicidal rating SETVI (SETVI (Setaria viridis) [12]; Rate 0.1250 kg/ha) | Preemergence herbicidal rating SETVI (SETVI (Setaria viridis) [12]; Rate 0.2500 kg/ha) | Preemergence herbicidal rating ORYSAT (ORYSAT (Rice, Tebonnet) [13]; Rate 0.2500 kg/ha) | herbicidal rating, ECHORC ([14]; rate 0.0320 kg/ha) | herbicidal rating, ECHORC ([14]; rate 0.1250 kg/ha) | herbicidal rating, CYPIR (CYPIR (Cyperus iria); rate 0.1250 kg/ha) | herbicidal rating, MOOVA ([15]; rate 0.0320 kg/ha) | herbicidal rating, MOOVA ([15]; rate 0.1250 kg/ha)
3.5: Preemergence herbicidal rating IPOHE ([10]; Rate 0.0620 kg/ha)
5.0: ZEAMX herbicidal rating (ZEAMX (Corn, Field); rate 0.0320 kg/ha) | ZEAMX herbicidal rating (ZEAMX (Corn, Field); rate 0.0620 kg/ha) | herbicidal rating, ECHORC ([14]; rate 0.0080 kg/ha)

Cc1cc(C)nc(-c2nsc3ccc(-n4c(=O)cc(C(F)(F)F)n(C)c4=O)cc23)n1 [Compound 40, 3-[3-(4,6-dimethyl-2-pyrimidinyl)-1,2-benzisothiazol-5-yl]-1-methyl-6-(trifluoromethyl)uracil]
6.0: herbicidal rating, ECHORC ([14]; rate 0.1250 kg/ha) | herbicidal rating, CYPIR (CYPIR (Cyperus iria); rate 0.1250 kg/ha)
2.0: Postemergence herbicidal rating, GALAP (GALAP (Galium aparine); rate 0.0320 kg/ha) | Postemergence herbicidal rating, GALAP (GALAP (Galium aparine); rate 0.0620 kg/ha) | Postemergence herbicidal rating, ORYSAT (ORYSAT (Rice, Tebonnet) [6]; rate 0.0320 kg/ha) | Postemergence herbicidal rating, ORYSAT (ORYSAT (Rice, Tebonnet) [6]; rate 0.0620 kg/ha) | Preemergence herbicidal rating CASOB ([8]; Rate 0.1250 kg/ha) | Preemergence herbicidal rating IPOHE ([10]; Rate 0.0620 kg/ha) | Preemergence herbicidal rating ORYSAT (ORYSAT (Rice, Tebonnet) [13]; Rate 0.1250 kg/ha) | herbicidal rating, ECHORC ([14]; rate 0.0320 kg/ha)
3.0: Postemergence herbicidal rating, SETVI (SETVI (Setaria viridis) [4]; rate 0.0320 kg/ha) | Preemergence herbicidal rating AMBEL ([7]; Rate 0.0620 kg/ha) | Preemergence herbicidal rating ECHCG ([11]; Rate 0.0620 kg/ha) | Preemergence herbicidal rating SETVI (SETVI (Setaria viridis) [12]; Rate 0.0620 kg/ha)
9.0: Postemergence herbicidal rating, ABUTH ([1]; rate 0.0320 kg/ha) | Postemergence herbicidal rating, ABUTH ([1]; rate 0.0620 kg/ha) | Postemergence herbicidal rating, IPOHE ([2]; rate 0.0320 kg/ha) | Postemergence herbicidal rating, IPOHE ([2]; rate 0.0620 kg/ha) | Postemergence herbicidal rating, SETVI (SETVI (Setaria viridis) [4]; rate 0.0620 kg/ha) | Preemergence herbicidal rating AMBEL ([7]; Rate 0.2500 kg/ha) | Preemergence herbicidal rating CHEAL ([9]; Rate 0.0620 kg/ha) | Preemergence herbicidal rating CHEAL ([9]; Rate 0.1250 kg/ha) | Preemergence herbicidal rating CHEAL ([9]; Rate 0.2500 kg/ha) | Preemergence herbicidal rating IPOHE ([10]; Rate 0.2500 kg/ha) | Preemergence herbicidal rating SETVI (SETVI (Setaria viridis) [12]; Rate 0.1250 kg/ha) | Preemergence herbicidal rating SETVI (SETVI (Setaria viridis) [12]; Rate 0.2500 kg/ha) | herbicidal rating, MOOVA ([15]; rate 0.1250 kg/ha)
0.0: Postemergence herbicidal rating, ECHCG ([3]; rate 0.0320 kg/ha) | herbicidal rating, SAGPY ([16]; rate 0.0320 kg/ha)
1.0: Postemergence herbicidal rating, ECHCG ([3]; rate 0.0620 kg/ha) | Preemergence herbicidal rating CASOB ([8]; Rate 0.0620 kg/ha) | Preemergence herbicidal rating ORYSAT (ORYSAT (Rice, Tebonnet) [13]; Rate 0.0620 kg/ha)
4.5: Postemergence herbicidal rating, ZEAMX (ZEAMX (Corn, Field); rate 0.0320 kg/ha)
8.0: Postemergence herbicidal rating, GLXMAW ([5]; rate 0.0620 kg/ha) | Preemergence herbicidal rating ECHCG ([11]; Rate 0.2500 kg/ha)
4.0: Preemergence herbicidal rating ORYSAT (ORYSAT (Rice, Tebonnet) [13]; Rate 0.2500 kg/ha)
7.0: Postemergence herbicidal rating, GLXMAW ([5]; rate 0.0320 kg/ha) | Preemergence herbicidal rating IPOHE ([10]; Rate 0.1250 kg/ha) | Preemergence herbicidal rating ECHCG ([11]; Rate 0.1250 kg/ha) | herbicidal rating, MOOVA ([15]; rate 0.0320 kg/ha) | herbicidal rating, ORYSAT (rice tolerance) (ORYSAT (Rice, Tebonnet) [17]; rate 0.1250 kg/ha)
5.0: Postemergence herbicidal rating, ZEAMX (ZEAMX (Corn, Field); rate 0.0620 kg/ha) | Preemergence herbicidal rating AMBEL ([7]; Rate 0.1250 kg/ha) | Preemergence herbicidal rating CASOB ([8]; Rate 0.2500 kg/ha) | herbicidal rating, CYPIR (CYPIR (Cyperus iria); rate 0.0320 kg/ha) | herbicidal rating, SAGPY ([16]; rate 0.1250 kg/ha) | herbicidal rating, ORYSAT (rice tolerance) (ORYSAT (Rice, Tebonnet) [17]; rate 0.0320 kg/ha)

Source: patent publication US6706663B2, “Herbicidal 3-heterocyclic substituted benzisothiazole and benzisoxazole compounds” (Wyeth, priority 2000, dated 2004)
